The structures appear in SMILES notation. Where “and” joins values, the source holds several entries; their conditions need not be identical. Equal values may be shown once.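 The compound was tested at five concentrations on cells cultured in 96-well plates, with a 48-hour exposure period. Here, GI50 denotes the concentration required for 50% inhibition of growth. TGI is the concentration that stops growth completely.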

Test systems include SF-539 CNS; PC-3 prostate; U251 CNS; A498 renal; MALME-3M melanoma; SK-MEL-28 melanoma; HCT-15 colon; CCRF-CEM leukemia; HCT-116 colon; RXF 393 renal.
Holding throughout (assay): NCI tumour cell line growth inhibition, 48 h

`CCN(CC)CCOc1ccc(C(=O)/C=C\c2ccc(Cl)cc2Cl)cc1`: the GI50 in the test with SF-539 CNS was 4.05 µM; in the test with PC-3 prostate, 4.1 µM; in the test with U251 CNS, 7.16 µM; in the test with A498 renal, 12.3 µM; with MALME-3M melanoma, 3.41 µM; with SK-MEL-28 melanoma, 2.55 µM. Also, the GI50 in the test on HCT-15 colon is 2.15 µM; in the test on CCRF-CEM leukemia, 2.57 µM; in the test on HCT-116 colon it was 1.56 µM; with RXF 393 renal, 5.13 µM. Moreover, the TGI in the test on SF-539 CNS was 16.4 µM; in the test with PC-3 prostate, 14.5 µM; with U251 CNS, 21.3 µM; in the test with A498 renal it was 24.7 µM; in the test with MALME-3M melanoma, 15.3 µM; in the test on SK-MEL-28 melanoma it was 7.75 µM. Moreover, the TGI with HCT-15 colon is 5.16 µM; with CCRF-CEM leukemia it was 9.09 µM; in the test on HCT-116 colon it was 3.31 µM; with RXF 393 renal it was 18.1 µM.

In the case of `[Cl][Cd][Cl]`, the GI50 is 4.51 µM and 19.5 µM and 18.9 µM in the test on SF-539 CNS; 10.5 µM in the test on PC-3 prostate; 14.7 µM and 13.6 µM in the test with U251 CNS; 14 µM in the test on A498 renal; 5.5 µM and > 34.7 µM and 3.68 µM in the test with MALME-3M melanoma; 17.9 µM and 11.6 µM in the test with SK-MEL-28 melanoma. Also, the GI50 in the test on HCT-15 colon was 52.2 µM; in the test with CCRF-CEM leukemia, 20.7 µM and 9.08 µM; in the test on HCT-116 colon it was 40.3 µM and 48.3 µM; with RXF 393 renal, 50.1 µM and 13.6 µM. Moreover, the TGI with SF-539 CNS was 47.4 µM and 62.5 µM; in the test with PC-3 prostate, 23.6 µM; in the test on U251 CNS, 20.3 µM and 40.1 µM; in the test on A498 renal, 32.9 µM; in the test with MALME-3M melanoma, > 49.4 µM and 9.41 µM; in the test on SK-MEL-28 melanoma, 34.6 µM and 30.4 µM. Besides, the TGI with HCT-15 colon was 150 µM; with CCRF-CEM leukemia it was 56.7 µM and 89.7 µM; in the test with HCT-116 colon it was 117 µM; with RXF 393 renal it was 41.2 µM.

Take `CN(C)CCN1C(=O)c2cccc3cccc(c23)C1=O`: the GI50 in the test on SF-539 CNS was 15.6 µM; in the test on PC-3 prostate it was 18.7 µM; with U251 CNS it was 19.8 µM; with A498 renal it was 13.4 µM; in the test with MALME-3M melanoma, 17.6 µM; in the test on SK-MEL-28 melanoma, greater than 25 µM. The GI50 in the test on HCT-15 colon is 11.4 µM; in the test with CCRF-CEM leukemia, 14.5 µM; with HCT-116 colon, 9.57 µM; with RXF 393 renal, 13.4 µM. Also, the TGI in the test on SF-539 CNS, in the test on PC-3 prostate, in the test with U251 CNS, in the test on A498 renal, in the test with MALME-3M melanoma and in the test on SK-MEL-28 melanoma was greater than 25 µM throughout. The TGI with HCT-15 colon, in the test with CCRF-CEM leukemia, with HCT-116 colon and with RXF 393 renal was greater than 25 µM in each case.

For `Cc1cccc2c(N)c3ccccc3nc12`, the GI50 in the test on SF-539 CNS is 1.09 µM; in the test on PC-3 prostate it was 2.32 µM; in the test on U251 CNS it was 2.19 µM; in the test with A498 renal it was 0.604 µM; in the test with MALME-3M melanoma it was 1.39 µM; in the test with SK-MEL-28 melanoma, 2.34 µM. For the same compound, the GI50 in the test on HCT-15 colon is 0.67 µM; with CCRF-CEM leukemia it was 2.54 µM; in the test on HCT-116 colon, 0.454 µM; in the test on RXF 393 renal it was 1.36 µM. Also, the TGI in the test with SF-539 CNS came out at 4.28 µM; in the test with PC-3 prostate it was 8.17 µM; in the test on U251 CNS it was 7.84 µM; in the test on A498 renal, 2.28 µM; in the test with MALME-3M melanoma, 3.21 µM; in the test on SK-MEL-28 melanoma it was 6.53 µM. Moreover, the TGI with HCT-15 colon amounted to 10.4 µM; with CCRF-CEM leukemia it was 10.2 µM; in the test on HCT-116 colon it was 11.2 µM; in the test with RXF 393 renal, 3.72 µM.

Consider `CC(C)CCN[C@@H]1CCc2cc(O)c(N3CC(=O)NS3(=O)=O)c(F)c2C1`, for which the GI50 is 20.3 µM in the test with SF-539 CNS; greater than 100 µM with PC-3 prostate; greater than 100 µM in the test with U251 CNS; greater than 100 µM in the test with A498 renal; greater than 100 µM in the test with MALME-3M melanoma; greater than 100 µM in the test with SK-MEL-28 melanoma. The GI50 in the test with HCT-15 colon was greater than 100 µM; in the test on CCRF-CEM leukemia, greater than 100 µM; in the test on HCT-116 colon, greater than 100 µM; in the test on RXF 393 renal it was 0.812 µM. Further, the TGI in the test on SF-539 CNS, in the test on PC-3 prostate, in the test on U251 CNS, in the test on A498 renal, in the test with MALME-3M melanoma and in the test with SK-MEL-28 melanoma was greater than 100 µM throughout. Moreover, the TGI is greater than 100 µM in the test with HCT-15 colon, greater than 100 µM in the test with CCRF-CEM leukemia, greater than 100 µM in the test with HCT-116 colon and 8.01 µM with RXF 393 renal.

`CCN(CC)CCSCCCNc1c2ccc(Cl)cc2nc2ccc(OC)cc12`: the GI50 with SF-539 CNS is 1.4 µM; in the test with PC-3 prostate, 1.23 µM; with U251 CNS, 1.7 µM; in the test on A498 renal, 0.654 µM; with MALME-3M melanoma it was 2.03 µM; in the test with SK-MEL-28 melanoma, 1.84 µM. Moreover, the GI50 in the test on HCT-15 colon is 0.433 µM; in the test on CCRF-CEM leukemia, 1.26 µM; with HCT-116 colon, 0.488 µM; in the test on RXF 393 renal it was 0.925 µM. The TGI in the test with SF-539 CNS stood at 2.97 µM; in the test on PC-3 prostate it was 3.06 µM; with U251 CNS, 3.32 µM; with A498 renal it was 2.16 µM; in the test on MALME-3M melanoma it was 3.73 µM; in the test on SK-MEL-28 melanoma, 3.8 µM. For the same compound, the TGI with HCT-15 colon came to 2.36 µM; with CCRF-CEM leukemia, 4.72 µM; in the test on HCT-116 colon, 2.07 µM; in the test on RXF 393 renal, 2.38 µM.

For `N#Cc1cc(S(=O)(=O)Nc2nc3ccccc3s2)c(SCc2ccccc2)cc1Cl`, the GI50 was 17.4 µM in the test on SF-539 CNS; 23.1 µM with PC-3 prostate; 19.2 µM with U251 CNS; 20.3 µM in the test with A498 renal; 21.4 µM with MALME-3M melanoma; 28.8 µM with SK-MEL-28 melanoma. The GI50 in the test with HCT-15 colon is 28.5 µM; with CCRF-CEM leukemia, 28.5 µM; in the test with HCT-116 colon, 16.1 µM; in the test on RXF 393 renal, 20.6 µM. Also, the TGI was determined as 34.8 µM in the test on SF-539 CNS; 51.1 µM in the test on PC-3 prostate; 38.2 µM in the test on U251 CNS; 45.8 µM in the test with A498 renal; 49.6 µM in the test on MALME-3M melanoma; 87.8 µM in the test on SK-MEL-28 melanoma. For the same compound, the TGI with HCT-15 colon stood at 66.4 µM; in the test with CCRF-CEM leukemia it was 94.6 µM; in the test on HCT-116 colon, 32.5 µM; in the test on RXF 393 renal, 45.4 µM.

For `Cc1cccc(Nc2cnc(N)nc2N)c1`, the TGI with SF-539 CNS, with PC-3 prostate, in the test on U251 CNS, with A498 renal, in the test with MALME-3M melanoma and with SK-MEL-28 melanoma was greater than 100 µM in each case. Besides, the TGI in the test with HCT-15 colon, in the test with CCRF-CEM leukemia, with HCT-116 colon and with RXF 393 renal was greater than 100 µM throughout.

Take `CC(=O)Oc1ccc(C(c2ccc(OC(C)=O)cc2)c2ccccn2)cc1`: the TGI in the test with SF-539 CNS, with PC-3 prostate, with U251 CNS, in the test on A498 renal, in the test on MALME-3M melanoma and with SK-MEL-28 melanoma was greater than 100 µM in each case. Moreover, the TGI in the test on HCT-15 colon was greater than 100 µM; in the test on CCRF-CEM leukemia it was greater than 100 µM; in the test with HCT-116 colon, greater than 100 µM; in the test on RXF 393 renal it was 96.9 µM and > 95.7 µM. For the same compound, the GI50 in the test on PC-3 prostate was 16.3 µM; in the test on A498 renal, 8.9 µM; with MALME-3M melanoma, 29.4 µM; with SK-MEL-28 melanoma, 61.5 µM; in the test with HCT-15 colon, 31.8 µM; with CCRF-CEM leukemia, 43 µM. Besides, the GI50 with HCT-116 colon is 40.7 µM; with RXF 393 renal, 3.67 µM.

On to `CNC(=O)OCC1C2=C(C(=O)C(C)=C(N)C2=O)N2CC3C(N3C)C12OC` (stereo not drawn), for which the TGI with SF-539 CNS is 87.5 µM; with PC-3 prostate, 64.7 µM; with U251 CNS it was 45.7 µM; with A498 renal it was 34.2 µM; in the test with MALME-3M melanoma, 18.5 µM; in the test with SK-MEL-28 melanoma, greater than 100 µM. Moreover, the TGI was 27 µM in the test on HCT-15 colon, greater than 100 µM in the test with CCRF-CEM leukemia, 30.4 µM in the test with HCT-116 colon and 57.1 µM with RXF 393 renal.
